Data as given in patent publication US20240074473A1, “METHOD FOR INDUCING HYPERTROPHIC MUSCLE FIBERS FOR INDUSTRIAL MEAT PRODUCTION” (Yeda Research and Development Co. Ltd., priority 2021, published 2024).
Structures can show the parent of a compound that is named as a salt. Where two headings read alike, the source gives them in different places. Each block holds one compound with its values, some of them ahead of it.

Key:
[1] = Maximum estimated dietary exposure to media ingredients per 100 g serving; conditions: assumption of complete transfer of media components to the finished product on a wt/wt basis
[2] = Risk categorization of cell culture media ingredients
Text: Category 1: These cell culture media components are food ingredients/additives that are GRAS or permitted by federal regulation without limitation on use. Exemplary compounds in this category include innocuous ingredients such as sugars, pH buffers, water soluble vitamins, and common antioxidants such as tocopherols.
Category 2: These cell culture media components are common dietary nutrients and are anticipated to have GRAS status for food use or be permitted by regulation for addition to food. Examples of such compounds include most of the inorganic salts and macronutrients that are present within the cell culture media. […] Majority of nutrients present within the poultry cell-based meat may be readily measured using common validated methods for food composition testing. Batch analyses of multiple lots of the finished product may be obtained to validate the above assumptions. In some instances, consideration of established safe levels (e.g., ADI, UL) derived from a relevant authoritative body (e.g., U.S. FDA, EFSA, JECFA, FSANZ, U.S. EPA) may be leveraged to support safety. If comparisons of anticipated dietary intakes relative to an authoritative reference intake value is used, consideration of additive intakes from all dietary sources may be considered. In the absence of an authoritative reference intake value, published NOAELs from animal toxicology studies may be used to evaluate safety using standard scientific procedures for food safety evaluation. A margin of exposure (MoE) of 100-fold or greater between the NOAEL and estimated dietary intakes from food exposures is typically considered adequate to support safety. in situations where the MoE is <100-fold, additional measures for further reduction of the media component may be necessary, or further characterization of intraspecies/interspecies differences in metabolism may be necessary. These situations also require careful consideration of the regulatory status on a case-by basis (e.g., premarket approval as a food additive or GRAS evaluation required).
For example, situations where the compound is not detectable in finished product or is present at equivalent levels in comparator foods, compounds that are thermo-labile and will be digested during cooking, and/or compounds that are expected to be digested to innocuous compounds following ingestion. Examples of compounds meeting the aforementioned conditions would include recombinant growth factors and serum components. For Category 3 substances a final consideration in the safety assessment process may involve hazard characterization of the potential for a substance to produce toxic biological effects outside of the endpoints measured in a sub-chronic rat toxicity study. Substances with biological activity may require additional hazard characterization related to reproductive and developmental toxicity, or immunotoxicity. Considerations for allergenicity, biological effects in humans (e.g., effects on blood pressure), and synergistic effects with other media components also may be evaluated. […] Examples of category 3 components include recombinant proteins and animal serum.

[3] = cited from earlier work; for Safe Reference Level for Human Dietary Intake: Iron UL: as iron
[4] = test system: primary mouse myoblasts; assay: MYOG positive nuclei in primary mouse myoblasts (immunofluorescence); assay type: cell-based; conditions: co-treatment with 1 μM ERKi, 24 hrs; HX531 20 uM, Dantrolene 50 uM, BAPTA-AM 10 uM, KN93 5 uM
Protocol: (§1) Isolation of and treatment of primary myoblasts. Primary mouse myoblasts were isolated from gastrocnemius muscle using trypsin-tissue dissociation. Briefly, muscle tissues were incubated in Trypsin B (0.25%, Biological Industries) and subjected to mechanical dissociation with a serological pipet. Supernatants were strained and centrifuged. Pellets were grown resuspended in BioAmf-2 media (Biological Industries, Israel) and plated on 10% Matrigel (BD Biosciences)-coated plates at 37° and 5% CO2. For all in vitro experiments, proliferation medium was Bio-Amf2 (Biological Industries, Israel) and Differentiation medium (DM) was DMEM 2% Horse Serum (HS) with 1% Pen/Strep. For fusion assays, cells were trypsinized with Trypsin C (0.05%, Biological Industries) and subjected to two rounds of preplating on uncoated plates to reduce the number of fibroblasts. Cells were plated at a density of 8×10^3 per well in 10% Matrigel-coated 96-well plates in proliferation medium for 24 hours. The following day, proliferation media was replaced either with proliferation media or with DM containing DMSO (Ctrl) or 1 μM ERK1/2 inhibitor (ERKi; SCH772984, Cayman Chemicals), […] RXR antagonist (RXRi; HX-531, Cayman Chemicals), […] Ryanodine receptor antagonist (RYRi; Dantrolene, Cayman Chemicals), 5 μM CaMKII inhibitor (CaMKIIi; KN93, Cayman Chemicals), or with DM for controls.
(§2) Immunofluorescence staining. First passage primary myoblasts isolated from various strains (indicated in figure legends) were plated in 96-well plates or chamber slides and treated as previously described. The cells were fixed with ice cold 4% PFA in PBS for 10 minutes, permeabilized with 0.5% Triton X-100 in PBS for 6 minutes, and blocked in PBS with 0.025% tween, 10% normal horse serum and 10% normal goat serum for 1 hour at room temperature. Primary antibody incubation was done in blocking buffer overnight at 4 degrees, with the following antibodies: Myosin Heavy Chain (MyHC, MF20, DSHB hybridoma supernatant 1:10, or MY-32 ABCAM ab51263 1:400), Myogenin (MYOG sc-13137 SCBT 1:200), pHistone 3 (PH3, ab47297 ABCAM 1:1000), Ki-67 (Cell Marque #275R), RYR (ab2868 ABCAM 1:100), and pCaMKII (SIGMA SAB4504356 1:100). Cells were washed 3 times in PBS with 0.025% tween and then incubated with appropriate secondary antibodies in PBS 1 hour. Where indicated, nuclei were either labeled with DAPI (SIGMA D9542, 5 ug/ml) or Hoechst 33342 (Thermo scientific #62249, 1:2000). Fixed cells at 24 hours post treatment with indicated inhibitors were imaged using the Nikon Eclipse Ti2 microscope (further described in microscopy section). All analysis was performed on at least 1000 nuclei. For fixed cells following the timecourse with ERKi or DM (FIG. 1B), images were captured with an inverted Olympus IX83 microscope (further details in microscopy section). All imaging analysis were performed on at least 1000 cells.

[5] = test system: primary mouse myoblasts; assay: Fusion index of primary mouse myoblasts (MyHC immunostaining); assay type: cell-based
Protocol: as §1
as §2, with “For fixed cells following the timecourse with ERKi or DM (FIG. 1B), images were captured with an inverted Olympus IX83 microscope (further details in microscopy section). All imaging analysis were performed on at least 1000 cells.” left out
Quantification of fusion index. Following immunostaining and imaging, a fusion index was quantified by manually identifying nuclei found in a MyHC positive cell with at least 2 nuclei. Then the values were expressed as a percentage of the total nuclei per field. Briefly, in Figures where fusion index is stratified into subgroups of fiber size, the nuclei number in MyHC positive cell was manually quantified in a given field and stratified into groups of mononucleated, bi-nucleated myotubes, myotubes with 3-10 nuclei and myotubes with greater than 10 nuclei. […] Fields were analyzed hourly, and nuclei per cell was quantified and stratified into mononucleated, bi-nucleated, tri-nucleated and cells with ≥4 nuclei.

[6] = test system: primary mouse myoblasts; assay: qRT-PCR gene expression in primary mouse myoblasts; assay type: cell-based; conditions: co-treatment with ERKi and RXRi, 24 hours post treatment
Protocol: Quantitative real-time PCR (qRT-PCR). Total RNA was isolated using Tri-Reagent (SIGMA) according to the manufacturer's instructions. cDNA was synthesized with the High Capacity cDNA Reverse Transcription Kit (Applied Biosystems according to the manufacturer's instructions. qRT-PCR was performed with SYBR green PCR Master Mix (Applied Biosystems) using the StepOnePlus Real-time PCR system (Applied Biosystems). Values for specific genes were normalize to either Gapdh or Hprt housekeeping control as indicated in Figure legend. Expression was calculated using the ddCT method.
First passage primary mouse derived myoblast were seeded in proliferation media, in equal number in 12-well tissue culture plates that were precoated with 10% Matrigel solution. Following 24 hours to allow for complete attachment, culture media was washed and replaced either with fresh proliferation media (PM), PM supplemented with 1 uM SCH 772984 (ERKi) or differentiation media (DM). After 24 hrs, cells were lysed and RNA was collected. Gene expression analysis was carried out using SYBR green qRT-PCR analysis.

[7] = cell culture media ingredient used during meat production
[8] = human dietary intake, niacinamide and magnesium sulfate: supplements

Compound: CC(=O)Oc1c(C)c(C)c2c(c1C)CCC(C)(CCCC(C)CCCC(C)CCCC(C)C)O2 (racemic) [DL-ALPHA-TOCOPHEROL ACETATE]
Maximum Estimated Exposure per 100 g serving [1]: 8 mg
Risk Assessment Category [2, 7]: 1
Safe Reference Level for Human Dietary Intake: UL (Tolerable Upper Limit) ([3]; human dietary intake): UL = 1000 mg/d

Compound: CC(=O)OCOC(=O)CN(CC(=O)OCOC(C)=O)c1ccccc1OCCOc1ccccc1N(CC(=O)OCOC(C)=O)CC(=O)OCOC(C)=O [BAPTA-AM]
Differentiation (percent of MYOG positive nuclei) on co-treatment with ERKi [4]: without affecting early differentiation
Reduction of ERKi-induced fusion ([5]; co-treatment with ERKi and BAPTA-AM (10 uM per FIG. 2B)): 81%

Compound: [Ca+2].[Cl-].[Cl-] [CALCIUM CHLORIDE (ANHY)]
Maximum Estimated Exposure per 100 g serving [1]: 760 mg
Risk Assessment Category [2, 7]: 1
Safe Reference Level for Human Dietary Intake (kind of level not given) ([3]; human dietary intake): 1 to 3 g/day

Compound: Cc1c(C)c2c(c(C)c1O)CC[C@@](C)(CCC[C@H](C)CCC[C@H](C)CCCC(C)C)O2 [D-ALPHA-TOCOPHEROL]
Maximum Estimated Exposure per 100 g serving [1]: 1.6 mg
Risk Assessment Category [2, 7]: 1
Safe Reference Level for Human Dietary Intake: UL (Tolerable Upper Limit) ([3]; human dietary intake): UL = 1000 mg/d

Compound: O=C1CN(/N=C/c2ccc(-c3ccc([N+](=O)[O-])cc3)o2)C(O)=N1 [Dantrolene]
Differentiation (percent of MYOG positive nuclei) on co-treatment with ERKi [4]: without affecting differentiation
Reduction of ERKi-induced fusion ([5]; co-treatment with ERKi and 50 uM Dantrolene): 60%

Compound: O.O.O.O.O.O.O.O=S(=O)([O-])[O-].[Fe+2] [FERROUS SULFATE-7H2O]
Maximum Estimated Exposure per 100 g serving [1]: 2.5 mg
Risk Assessment Category [2]: 2
Safe Reference Level for Human Dietary Intake: Iron UL ([3]; human dietary intake): Iron UL = 40 to 45 mg

Compound: CN1c2ccc([N+](=O)[O-])cc2N=C(c2ccc(C(=O)O)cc2)c2cc3c(cc21)C(C)(C)CCC3(C)C [HX531]
Differentiation (percent of MYOG positive nuclei) on co-treatment with ERKi [4]: without affecting differentiation
Suppression of ERKi-induced fusion ([5]; co-treatment with ERKi and 20 uM HX531, 24 hours): 47%
Ryr1 and Ryr3 mRNA expression [6]: downregulation

Maximum Estimated Exposure per 100 g serving [1]: 1 mg
Risk Assessment Category [2]: 2
Compound: CCCCC/C=C\C/C=C\CCCCCCCC(=O)O [LINOLEIC ACID]
Safe Reference Level for Human Dietary Intake: AI (Adequate Intake) ([3]; human dietary intake): AI = 7 to 12 g/d

Compound: [Cl-].[Cl-].[Mg+2] [MAGNESIUM CHLORIDE (ANHY)]
Maximum Estimated Exposure per 100 g serving [1]: 170 mg
Risk Assessment Category [2, 7]: 1
Safe Reference Level for Human Dietary Intake (kind of level not given) ([3]; human dietary intake): 65 to 350 mg

Compound: O=S(=O)([O-])[O-].[Mg+2] [MAGNESIUM SULFATE (ANHY)]
Maximum Estimated Exposure per 100 g serving [1]: 493 mg
Risk Assessment Category [2, 7]: 1
Safe Reference Level for Human Dietary Intake: UL (Tolerable Upper Limit) [3, 8]: UL = 65 to 350 mg

Compound: O.O=S(=O)([O-])[O-].[Mn+2] [MANGANESE SULFATE H2O]
Maximum Estimated Exposure per 100 g serving [1]: 0.003 mg
Risk Assessment Category [2, 7]: 1
Safe Reference Level for Human Dietary Intake (kind of level not given) ([3]; human dietary intake): 0.002 to 0.011 g/day

Maximum Estimated Exposure per 100 g serving [1]: 25 mg
Risk Assessment Category [2]: 1
Compound: NC(=O)c1cccnc1 [NIACINAMIDE (NICOTINAMIDE), NIACINAMIDE]
Safe Reference Level for Human Dietary Intake: UL (Tolerable Upper Limit) [3, 8]: UL = 10 to 35 mg

Compound: [Cl-].[K+] [POTASSIUM CHLORIDE]
Maximum Estimated Exposure per 100 g serving [1]: 4000 mg
Risk Assessment Category [2, 7]: 1
Safe Reference Level for Human Dietary Intake (UL) given as symbol ([3]; human dietary intake): UL = NS

Maximum Estimated Exposure per 100 g serving [1]: 1000 mg
Risk Assessment Category [2, 7]: 3
Compound: CC(=O)C(=O)[O-].[Na+] [SODIUM PYRUVATE]
Safe Reference Level for Human Dietary Intake, in words ([3]; dietary intakes within the range of OSL values reported in human investigations): Dietary intakes within

Maximum Estimated Exposure per 100 g serving [1]: 18 mg
Risk Assessment Category [2]: 1
Compound: Cc1ncc(C[n+]2csc(CCO)c2C)c(N)n1 [THIAMINE-HCL]
Safe Reference Level for Human Dietary Intake (UL) given as symbol ([3]; human dietary intake): UL = NS

Maximum Estimated Exposure per 100 g serving [1]: 4 mg
Risk Assessment Category [2, 7]: 2
Compound: CCCCCCCC/C=C\CCCCCCCC(=O)OCCOCC(OCCO)C1OCC(OCCO)C1OCCO (stereo not drawn) [TWEEN 80]
Safe Reference Level for Human Dietary Intake: ADI (Acceptable Daily Intake) ([3]; human dietary intake): ADI = 10 mg/kg bw/d

Maximum Estimated Exposure per 100 g serving [1]: 0.024 mg
Risk Assessment Category [2]: 1
Compound: C=C1CC[C@H](O)C/C1=C/C=C1\CCC[C@]2(C)[C@@H]([C@H](C)/C=C/[C@H](C)C(C)C)CC[C@@H]12 [VITAMIN D2 (ERGOCALCIFEROL), ERGOCALCIFEROL]
Safe Reference Level for Human Dietary Intake: UL (Tolerable Upper Limit) ([3]; human dietary intake): UL = 100 ug/d

Compound: O.O.O.O.O.O.O.O=S(=O)([O-])[O-].[Zn+2] [ZINC SULFATE-7H20]
Maximum Estimated Exposure per 100 g serving [1]: 15 mg
Risk Assessment Category [2]: 1
Safe Reference Level for Human Dietary Intake: UL (Tolerable Upper Limit) ([3]; human dietary intake): UL = 5 to 40 mg/day

Maximum Estimated Exposure per 100 g serving [1]: 100 mg
Compound: CALCIUM D-PANTOTHENATE
Safe Reference Level for Human Dietary Intake (UL) given as symbol ([3]; human dietary intake): UL = NS

Compound: COPPER SULFATE-PENTAHYDRATE
Maximum Estimated Exposure per 100 g serving [1]: 3 mg
Safe Reference Level for Human Dietary Intake (kind of level not given) ([3]; human dietary intake): 1 to 10 mg

Compound: FERRIC CITRATE
Safe Reference Level for Human Dietary Intake: Iron UL ([3]; human dietary intake): Iron UL = 40 to 45 mg
